The source made the active and inactive calls. No cut-off for these calls is given here.
Columns and labels:
Format in all cases: functional, organism-based
[1] = system: Human alphaherpesvirus 1; experiment: The compound was tested for plaque inhibition in HSV-1 in cell culture; - = in active at 50 ug per disk
[2] = system: Human alphaherpesvirus 1; experiment: The compound was tested for plaque inhibition in HSV-1 in cell culture, activity is determined by plaque reduction assay
[3] = system: Human alphaherpesvirus 1; experiment: The compound was tested for plaque inhibition in HSV-1 in cell culture; +=active at 50 ug per disk

IC50 [2] [µM]	SMILES	Plaque inhibition result [1]	Plaque inhibition result [3]
	NCCOCn1cnc2c(N)nc(N)nc21	inactive	
0.1	Nc1nc2c(ncn2COCCO)c(=O)[nH]1 [ACYCLOVIR]		active at 50 ug per disk
	CC(=O)NCCOCn1cnc2c(O)nc(N)nc21	inactive	
8	NCCOCn1cnc2c(O)nc(N)nc21		active at 50 ug per disk
	NCCOCCOCn1cnc2c(O)nc(N)nc21	inactive	
	Nc1nc(O)c2ncn(COCCNCCO)c2n1	inactive	
